ChEMBL document CHEMBL1201862, “PubChem BioAssay data set” (2004)
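Protocol summary: plate cells (96-well), add compound at 5 concentrations, incubate 48 h, interpolate endpoints linearly. Here, GI50 denotes the concentration required for 50% inhibition of growth.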 The source made the active and inactive calls. Cut-off read from the data, not from the text of the source: active = GI50 up to about 1.1 µM and inactive = higher.

Key:
Assay in all cases: growth of human tumour cells (NCI), 48 h
[1] = tested on: A498
[2] = tested on: BT-549
[3] = tested on: CAKI-1
[4] = tested on: COLO 205
[5] = tested on: EKVX
[6] = tested on: HCT-15
[7] = tested on: HL-60
[8] = tested on: HOP-92
[9] = tested on: HT-29
[10] = tested on: IGROV-1
[11] = tested on: MCF7
[12] = tested on: NCI-H522
[13] = tested on: OVCAR-4
[14] = tested on: OVCAR-5
[15] = tested on: SF-295
[16] = tested on: SNB-75
[17] = tested on: T47D
[18] = tested on: TK-10
[19] = tested on: UO-31

| Compound | GI50 [1] | GI50 [2] | GI50 [3] | GI50 [4] | GI50 [5] | GI50 [6] | GI50 [7] | GI50 [8] | GI50 [9] | GI50 [10] | GI50 [11] | GI50 [12] | GI50 [13] | GI50 [14] | GI50 [15] | GI50 [16] | GI50 [17] | GI50 [18] | GI50 [19] |
| --- | --- | --- | --- | --- | --- | --- | --- | --- | --- | --- | --- | --- | --- | --- | --- | --- | --- | --- | --- |
| COc1ccc(/C=C(/c2ccc(OC)cc2)c2c(Cl)cc(Cl)c(/C(=C\c3ccc(OC)cc3)c3ccc(OC)cc3)c2/N=N/c2ccccc2)cc1 | 98.2 µM (inactive) | > 100 µM (inactive) | > 100 µM (inactive) | > 100 µM (inactive) | > 100 µM (inactive) | > 100 µM | > 100 µM (inactive) | > 100 µM (inactive) | > 100 µM (inactive) | > 100 µM (inactive) | 62.1 µM (inactive) | > 100 µM (inactive) | > 100 µM (inactive) | > 100 µM (inactive) | > 100 µM (inactive) | > 100 µM (inactive) | > 100 µM (inactive) | > 100 µM (inactive) | > 100 µM (inactive) |
| Cc1ccc2nc(N/N=C/c3cccc(C)n3)cc(C)c2c1 | 17.9 µM (inactive) | 18.8 µM (inactive) | 16.8 µM (inactive) | 15 µM (inactive) | 16.6 µM (inactive) | 14.2 µM | 2.26 µM (inactive) | 17.6 µM (inactive) | 12.3 µM (inactive) | 13.9 µM (inactive) | 13.6 µM (inactive) | 17.6 µM (inactive) | 16.6 µM (inactive) | 14.3 µM (inactive) | 15.4 µM (inactive) | 19.7 µM (inactive) | 16 µM (inactive) | 14.7 µM (inactive) | 19.7 µM (inactive) |
| O=C1C[C@H](COCc2ccccc2)NC(=O)C[C@H](COCc2ccccc2)NC(=O)C[C@H](COCc2ccccc2)N1 | 12 µM (inactive) | 41.6 µM (inactive) | > 100 µM (inactive) | > 100 µM (inactive) | > 100 µM (inactive) | > 100 µM | 92.7 µM (inactive) | 12.2 µM (inactive) | > 100 µM (inactive) | > 100 µM (inactive) | > 100 µM (inactive) | > 100 µM (inactive) | > 100 µM (inactive) | > 100 µM (inactive) | 19.2 µM (inactive) | 2.55 µM (inactive) | 62.2 µM (inactive) | 18.1 µM (inactive) | > 100 µM (inactive) |
| CCOC(=O)c1cccc(NC(=O)CI)c1 | 2.07 µM (inactive) | 0.381 µM (active) | 0.55 µM (active) | 0.531 µM (active) | 1.93 µM (inactive) | 0.336 µM | 0.653 µM (active) | 1.07 µM (active) | 0.313 µM (active) | 0.338 µM (active) | 0.394 µM (active) | 0.179 µM (active) | 0.5 µM (active) | 1.64 µM (inactive) | 2.47 µM (inactive) | 1.42 µM (inactive) | 1.39 µM (inactive) | 0.897 µM (active) | 0.189 µM (active) |
| NC1=NCC(CN2CCOCC2)O1 (centres undefined) | > 100 µM (inactive) | > 100 µM (inactive) | > 100 µM (inactive) | > 100 µM (inactive) | > 100 µM (inactive) | > 100 µM | > 100 µM (inactive) | > 100 µM (inactive) | > 100 µM (inactive) | > 100 µM (inactive) | > 100 µM (inactive) | > 100 µM (inactive) | > 100 µM (inactive) | > 100 µM (inactive) | > 100 µM (inactive) | 62.2 µM (inactive) | > 100 µM (inactive) | > 100 µM (inactive) | > 100 µM (inactive) |
| CCOC(=O)[C@H]1C[C@]23CN(C(=O)OC(C)(C)C)CC[C@H]2CCC2(SCCCS2)[C@@H]3N1C | 52.2 µM (inactive) | 50.2 µM (inactive) | 33.8 µM (inactive) | 28.2 µM (inactive) | 27.3 µM (inactive) | 38.1 µM | 20.7 µM (inactive) | 14.1 µM (inactive) | 22.5 µM (inactive) | 49.9 µM (inactive) | 38.7 µM (inactive) | 27.5 µM (inactive) | 16 µM (inactive) | 50.5 µM (inactive) | 38.3 µM (inactive) | 72.9 µM (inactive) | 25.8 µM (inactive) | 36.6 µM (inactive) | 37.8 µM (inactive) |
| O=c1cc(-c2ccccc2)oc2ccc(Oc3nnnn3-c3ccccc3)cc12 | 90.2 µM (inactive) | 15.3 µM (inactive) | > 50.1 µM (inactive) | > 87.3 µM (inactive) | 12.1 µM (inactive) | > 100 µM | > 100 µM (inactive) | 20.1 µM (inactive) | > 100 µM (inactive) | > 75.5 µM (inactive) | > 45.9 µM (inactive) | 70.5 µM (inactive) | > 28.2 µM (inactive) | > 100 µM (inactive) | 29.2 µM (inactive) | 47.3 µM (inactive) | 12.1 µM (inactive) | > 100 µM (inactive) | > 100 µM (inactive) |
| COC(=O)/C=C1\C(=O)N(C(C)=O)c2ccc(Br)cc21 | 21.9 µM (inactive) | 9.08 µM (inactive) | 21.3 µM (inactive) | 13.7 µM (inactive) | 15.2 µM (inactive) | 6.75 µM | 2.23 µM (inactive) | 13.6 µM (inactive) | 8.87 µM (inactive) | 7.6 µM (inactive) | 4.5 µM (inactive) | 3.73 µM (inactive) | 13.2 µM (inactive) | 17.3 µM (inactive) | 16.9 µM (inactive) | 8.59 µM (inactive) | 5.02 µM (inactive) | 6.31 µM (inactive) | 0.69 µM (active) |
| c1ccc(-c2nnn(CCN3CCCCC3)n2)cc1 | > 100 µM (inactive) | > 100 µM (inactive) | > 100 µM (inactive) | > 100 µM (inactive) | 96.6 µM (inactive) | > 100 µM | > 100 µM (inactive) | > 100 µM (inactive) | > 100 µM (inactive) | > 100 µM (inactive) | > 100 µM (inactive) | > 100 µM (inactive) | > 100 µM (inactive) | > 100 µM (inactive) | > 100 µM (inactive) | > 100 µM (inactive) | > 100 µM (inactive) | > 100 µM (inactive) | > 100 µM (inactive) |
| CN(C)c1ccc(/C=C2\C[C@H]3[C@@H]4CC=C5C[C@@H](N6CCCC6)CC[C@]5(C)[C@H]4CC[C@]3(C)[C@H]2O)cc1 | 1.01 µM (active) | 3.18 µM (inactive) | 1.16 µM (inactive) | 1.52 µM (inactive) | 1.83 µM (inactive) | 1.57 µM | 1.15 µM (inactive) | 2.47 µM (inactive) | 1.1 µM (active) | 0.989 µM (active) | 2.96 µM (inactive) | 1.11 µM (active) | 0.796 µM (active) | 3.99 µM (inactive) | 1.13 µM (inactive) | 0.959 µM (active) | 0.998 µM (active) | 1.24 µM (inactive) | 0.838 µM (active) |
| O=C1N/C(=N\N=C\c2ccccc2)C2(CCCCC2)O1 | > 100 µM (inactive) | > 100 µM (inactive) | 84.9 µM (inactive) | 93.1 µM (inactive) | > 100 µM (inactive) | 46.9 µM | 32.9 µM (inactive) | > 100 µM (inactive) | 78 µM (inactive) | > 100 µM (inactive) | > 100 µM (inactive) | > 100 µM (inactive) | > 100 µM (inactive) | > 100 µM (inactive) | 55.1 µM (inactive) | 20.5 µM (inactive) | > 100 µM (inactive) | 74.6 µM (inactive) | 43.1 µM (inactive) |
